Data published in patent US20050124690A1, “Pharmaceutical composition for the treatment of seborrhea containing 4-hydroxy-5-methoxy-4-[2-methyl-3(3-methyl-2-butenyl)-2-oxiranyl]-1-oxaspiro[2,5]octan-6-one” (priority 2002, published 2005).

How the values were obtained:
Pityrosporum ovale [1] = assay: Minimum inhibition concentration (MIC) on Sabouraud's dextrose solid medium; format: cell-based; settings: Malassezia furfur; solid medium with 1% corn oil and 0.1% Tween-80; 30° C., 3 to 5 days; naked eye
Description: For use in this test, P. ovale was cultured in Sabouraud's dextrose solid medium containing 1% corn oil and 0.1% Tween-80 at 30° C. for 2 days. After Sabouraud's dextrose solid medium containing 1% corn oil and 0.1% Tween-80 was aliquotted onto 6 cm plane plates, 4-hydroxy-5-methoxy-4-[2-methyl-3-(3-methyl-2-butenyl)-2-oxiranyl]-1-oxaspiro[2,5]octan-6-one was added in various concentration. When the medium was hardened, 150 μl of the cultured P. ovale was smeared onto the medium, followed by incubation at 30° C. for 3 to 5 days. Observing with naked eye, a minimum concentration capable of inhibiting the growth of the fungus was determined as MIC (Minimum Inhibition Concentration).
MIC versus P. ovale of 4-hydroxy-5-methoxy-4-[2-methyl-3-(3-methyl-2-butenyl)-2-oxiranyl]-1-oxaspiro[2,5]octan-6-one is given in Table 1, below.

[2] = tested on: four-week old female rats; assay: Acute dermal toxicity test; format: in vivo; settings: 4000 mg/kg applied to about 10% of body surface area of shaved rats; observation for 15 days
Description: 4-hydroxy-5-methoxy-4-[2-methyl-3-(3-methyl-2-butenyl)-2-oxiranyl]-1-oxaspiro[2,5]octan-6-one, which was isolated from the culture filtrate and then purified, was tested for acute dermal toxicity using four-week old female rats, according to the standards provided by the Korean Food & Drug Administration. After the rats were shaved, 4000 mg/kg (body weight) of the compound was uniformly applied to about 10% of body surface area of rats.

Pityrosporum ovale [3] = assay: Paper disc diffusion test for antifungal activity; format: cell-based; settings: 45 μl of 0.1% acetone solution on paper disc; 30° C., 3 days
Description: A paper disc diffusion method was used to investigate antifungal activity against a fungus, Pityrosporum ovale. Sabouraud's dextrose solid medium containing 1% of corn oil and 0.1% Tween-80 was aliquotted onto 87 mm plane plates, and allowed to harden. In order to examine antifungal activity against P. ovale, […] of P. ovale cultured in Sabouraud's dextrose solid medium at 30° C. for 2 days was smeared onto the plates, and then dried. 45 μl of an acetone solution containing 0.1% of 4-hydroxy-5-methoxy-4-[2-methyl-3-(3-methyl-2-butenyl)-2-oxiranyl]-1-oxaspiro[2,5]octan-6-one was aliquated onto paper discs, and, after completely evaporating off the acetone, put onto the P. ovale-smeared medium. Plates not treated with 4-hydroxy-5-methoxy-4-[2-methyl-3-(3-methyl-2-butenyl)-2-oxiranyl]-1-oxaspiro[2,5]octan-6-one were used as controls. Thereafter, incubation was carried out at 30° C. for 3 days, and it was observed whether a growth inhibition area formed around the discs or not.

SMILES: COC1C(=O)CCC2(CO2)C1(O)C1(C)OC1CC=C(C)C (stereo not drawn) [4-hydroxy-5-methoxy-4-[2-methyl-3-(3-methyl-2-butenyl)-2-oxiranyl]-1-oxaspiro[2,5]octan-6-one]
- MIC (Pityrosporum ovale [1]): < 2 µg/mL
- irritation, such as erythema or crusting [2]: not detected irritation
- antifungal activity against P. ovale (growth inhibition area around the discs) (Pityrosporum ovale [3]): found to have antifungal activity
